Reference: patent US7601744B2, “Benzothiadiazolylphenylalkylamine derivatives and methods of their use” (Wyeth, priority 2005, dated 2009)
Where a name gives a salt, the structure may show the parent alone.

Biological target: T1, hNET (Homo sapiens, UniProt P23975)
T1 construct: expressed in transfected cells
Assay: Norepinephrine (NE) uptake assay in MDCK-Net6 cells
Format: cell-based
Conditions: [3H]NE uptake
Procedure: MDCK-Net6 cells, stably transfected with human hNET (Pacholczyk, T., R. D. Blakely, and S. G. Amara, Nature, 1991, 350(6316): p. 350-4) were cultured in growth medium containing high glucose DMEM (Gibco, Cat. No. 11995), 10% FBS (dialyzed, heat-inactivated, US Bio-Technologies, Lot FBD1129HI) and 500 µg/ml G418 (Gibco, Cat. No. 10131). Cells were plated at 300,000/T75 flask and cells were split twice weekly. The JAR cell line (human placental choriocarcinoma) was purchased from ATCC (Cat. No. HTB-144). The cells were cultured in growth medium containing RPMI 1640 (Gibco, Cat. No. 72400), 10% FBS (Irvine, Cat. No. 3000), 1% sodium pyruvate (Gibco, Cat. No. 1136) and 0.25% glucose. Cells were plated at 250,000 cells/T75 flask and split twice weekly. For all assays, cells were plated in Wallac 96-well sterile plates (PerkinElmer, Cat. No. 3983498)
On day 1, cells were plated at 3,000 cells/well in growth medium and maintained in a cell incubator (37° C., 5% CO2). On day 2, growth medium was replaced with 200 μl of assay buffer (25 mM HEPES; 120 mM NaCl; 5 mM KCl; 2.5 mM CaCl2; 1.2 mM MgSO4; 2 mg/ml glucose (pH 7.4, 37° C.)) containing 0.2 mg/ml ascorbic acid and 10 μM pargyline. […] The plates were counted in a Wallac Microbeta counter (PerkinElmer) to collect the raw cpm data. […]

T1 sequence (P23975 whole entry): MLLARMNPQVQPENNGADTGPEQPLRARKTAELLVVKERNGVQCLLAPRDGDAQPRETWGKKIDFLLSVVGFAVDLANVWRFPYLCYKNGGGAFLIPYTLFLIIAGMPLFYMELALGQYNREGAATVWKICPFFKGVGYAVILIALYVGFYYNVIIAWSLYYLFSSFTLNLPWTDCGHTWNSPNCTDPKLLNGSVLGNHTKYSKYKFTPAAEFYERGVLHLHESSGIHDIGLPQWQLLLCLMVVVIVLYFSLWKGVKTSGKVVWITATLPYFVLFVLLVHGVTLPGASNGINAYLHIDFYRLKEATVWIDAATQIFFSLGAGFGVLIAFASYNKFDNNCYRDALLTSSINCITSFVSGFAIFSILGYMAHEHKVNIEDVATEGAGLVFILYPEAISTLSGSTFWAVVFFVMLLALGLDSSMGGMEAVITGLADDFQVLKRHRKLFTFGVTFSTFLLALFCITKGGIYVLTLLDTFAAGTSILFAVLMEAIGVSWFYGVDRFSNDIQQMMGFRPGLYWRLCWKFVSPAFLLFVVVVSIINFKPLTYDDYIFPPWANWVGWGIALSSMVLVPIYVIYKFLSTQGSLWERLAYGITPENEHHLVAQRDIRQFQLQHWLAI

inhibition at 6 µM: 33%
Structure (SMILES): CNCC[C@@H](c1ccccc1)N1c2ccccc2N(C)S1(=O)=O [Example 5, (3S)-N-methyl-3-(3-methyl-2,2-dioxido-2,1,3-benzothiadiazol-1(3H)-yl)-3-phenylpropan-1-amine hydrochloride]
